Literature values as cited in patent US9457010B2, “Compositions for use in treating or preventing metabolic stress-induced lung injury and methods for increasing physical capacity of mammalian livestock” (Nutri-fit GmbH & Co. KG, priority 2009, dated 2016).

System: pulmonary function
Conditions: 3 weeks isocaloric diet; endotoxin challenge

Structure (SMILES): CCCCC/C=C\C/C=C\CCCCCCCC(=O)O [linoleate]
- histological evidence in lung: vascular congestion, intra-alveolar edema and alveolar septa thickening
